# Source: patent US20230372337A1, “Combination Therapy Comprising an AXL Inhibitor” (BERGENBIO ASA, priority 2020, published 2023)
# Read-outs that look alike come from different tables or passages of the source.
# Assays:
# [1] = tested on: Type I IFN related genes; experiment: RT2 Profiler PCR Array Mouse Type I Interferon Response on 4T1 tumors (Example 1 mechanistic study); type: in vivo, BALB/c mice; details: 4T1 tumors day 19; one animal per group compared to one of the controls
# Method: RNA was extracted from snap frozen tumors using the RNEasy Microarray Tissue Mini kit from Qiagen following the manufacturer's instructions. As tumors contained Doxorubicin and powderizing them could expose personnel to harmful substances, the RNA was extracted in a closed system using the GentleMACS dissociator and M Tubes. Purity and concentration of RNA was measured using Nanodrop. cDNA was synthesized from RNA using the RT2 First Strand kit (Qiagen) according to the manufacturer's instructions. cDNA was mixed with RT2 SYBR Green Mastermix (Qiagen) and loaded into RT^2 Profiler™ PCR Array Mouse Type I Interferon Response, to analyze the expression of the 84 genes listed in Table 2. The plates were analysed using a Light Cycler 480 (Roche) and data were analysed using the Qiagen Data Analysis Centre and Graph Pad (Prism).
# 16 animals were used in the mechanistic study and were sacrificed day 19 post implantation, 3 days after Doxorubicin injection. […] The 4 animals from group A (no treatment) were used as controls. The fold changes of 4 animals of group B (Bemcentinib), group F (Doxorubicin) and group H (Bemcentinib+Doxorubicin) are expressed as compared to the control animals (group A).
# [2] = tested on: global gene expression; experiment: RNA sequencing of 4T1 tumors 72 hours after doxorubicin i.t. (Example 2); type: in vivo, Balb/c mice
# Method: FASTQ files were generated and quality controlled by the Genomic Core Facility. The trimmed samples were aligned to the reference genome using STAR. Gene expression quantification was achieved using feature Counts. Following QC, 8 and 7 samples from in vitro and in vivo studies respectively were identified as outliers and were excluded from subsequent analysis. RUVseq was used to remove hidden batch effect and/or other unwanted variations.
# Read counts were analyzed for differential expression using the R package DESeq2. DESeq2 uses the raw read counts, applies an internal normalization method, and does estimation of library size, estimation of dispersion, and negative binomial generalized linear model fitting. The resulting differentially expressed gene lists (adjusted p-value cutoff=0.05) were then analyzed using Metascape to find the enriched terms.
# RNA sequence analysis (RNAseq) was performed on tumor samples from mice sacrificed 72 hours after doxorubicin i.t. treatment (corresponding to group E and F at the 72 hr timepoint in Example 1).
# [3] = mouse, in vivo
# Description: Animals were weighed prior to tumor cell injection, prior to daily dosing and prior to euthanasia.
# [4] = tested on: 4T1 mammary carcinoma cells; experiment: Tumor growth, 4T1 model (Example 2); design: species or system Balb/c mice; details: short in vivo study, single i.t. injection day 15
# Method: Tumor growth was measured with a digital handheld caliper twice weekly from emergence of tumor and until the day of euthanasia
# [5] = tested on: IFN related genes (ISG); experiment: qRTPCR of IFN related genes in Yumm1.7 tumors after sacrifice (Example 3); type: in vivo, C57Bl6 mice; details: 35 IFN related genes tested
# Method: RNA was extracted from snap frozen tumors using the RNEasy Microarray Tissue Mini kit from Qiagen following the manufacturer's instructions. As tumors contained Doxorubicin and powderizing them could expose personnel to harmful substances, the RNA was extracted in a closed system using the GentleMACS dissociator and M Tubes. Purity and concentration of RNA was measured using Nanodrop. cDNA was synthesized from RNA using the RT^2 First Strand kit (Qiagen) according to the manufacturer's instructions. cDNA was mixed with SYBR Green Mastermix (Qiagen) and loaded into PCR plates with different probes against interferon related genes (listed in table 14). The plates were analyzed using Light Cycler 480 (Roche) and data were analyzed using Graph Pad (Prism).
# Tumors from 4 animals treated either with Vehicle (group A), bemcentinib (Group B), Doxorubicin (group F) or bemcentinib+Doxorubicin (group H) were analyzed. Data are presented as fold changes compared to Vehicle treated mice. 35 IFN related genes (Table 14) were tested by RT PCR. Fold change was obtained compared to the control group (A). […]
# A molecular mechanism focused study will be performed later; here samples were collected after sacrifice, meaning many days after treatment for some of the groups. The expression of 35 ISG as well, immune checkpoint related genes EMT related genes, Axl and Gas6 were analyzed by qRTPCR (Table 14).
# [6] = tested on: 4T1 cells; experiment: qRTPCR of IFN related genes in 4T1 cells in vitro (Example 4); type: cell-based, mouse; details: doxorubicin, 42 ISG measured
# [7] = tested on: LL2 cells; experiment: Resazurin viability assay of LL2 cells (Example 4); type: cell-based, mouse
# Method: (§1) 4T1 cells (ATCC, CRL-2539) were cultured in RPMI-1640 (Sigma, Cat. #R8758) supplemented with 10% fetal bovine serum (FBS), L-glutamine (4 mM), streptomycin (5 μg/ml) and penicillin (5 U/ml). […] Lewis lung carcinoma cells LL/2 (LLC1) (ATCC, CRL-1642™) were cultured in Dulbecco's Modified Eagle's Medium ATCC® 30-2002™ (4 mM L-glutamine, 4500 mg/L glucose, 1 mM sodium pyruvate, and 1500 mg/L sodium bicarbonate).
# (§2) The IC50 of the different drugs were calculated by resazurin viability assay. […] The cells were treated for 48 hours.
# [8] = tested on: LL2 cells; experiment: qRTPCR of IFN related genes in Lewis lung carcinoma (LL2) cells in vitro (Example 4); type: cell-based, mouse; details: Doxorubicin 50 nM, 48 hours
# Method: as §1
# RNA was extracted from snap frozen tumors using the RNEasy Microarray Tissue Mini kit from Qiagen following the manufacturer's instructions. As tumors contained Doxorubicin and powderizing them could expose personnel to harmful substances, the RNA was extracted in a closed system using the GentleMACS dissociator and M Tubes. Purity and concentration of RNA was measured using Nanodrop. RT^2 Profiler™ PCR Array. cDNA was synthesized from RNA using the RT^2 First Strand kit (Qiagen) according to the manufacturer's instructions. cDNA was mixed with RT^2 SYBR Green Mastermix (Qiagen) and loaded into RT^2 Profiler™ PCR Array Mouse Type I Interferon Response or RT^2 Profiler™ PCR Array Mouse Epithelial to Mesenchymal Transition (EMT), analyzing the expression of the genes listed in Table 17. The plates were analyzed using Light Cycler 480 (Roche) and data were analyzed using the Qiagen Data Analysis Centre and Graph Pad (Prism).
# Chemotherapeutic agents commonly used to treat lung cancer patients were evaluated for effects on the IFN response. Cisplatin, navelbine and docetaxel were tested in vitro in combination with bemcentinib.
# as §2
# [9] = tested on: 4T1 mammary carcinoma cells; experiment: 4T1 syngeneic mammary carcinoma model, tumor growth and survival (Example 1); details: 4T1 model; for Effect on mouse survival: without the CPI treatment, 500 mm^3
# Description: Exponentially growing 4T1 mammary carcinoma cells were harvested and re-suspended at 4×10^6 per ml in the mixture of serum-free RPMI medium and Matrigel (1:1). Only cells with over 95% viability have been used for in vivo study.
# Each animal was weighed before cell implantation. Mice were anesthetized by inhalation of Sevoflurane. Anesthesia was induced at 8% Sevoflurane and maintained at 4%. Every mouse was placed on a heating pad and appropriately marked. Under a suitable depth of unconsciousness, animals were shaved, and the skin and surrounding region washed with Chlorhexidine (1 mg/ml) with use of sterile gauze. Injection was done orthotopically with one tumor per mouse with 0.05 ml of approximately 2×10^5 4T1 cells in serum-free RPMI medium/Matrigel (1:1).
# 2 randomizations were performed on 150 mice in 30 cages, with 5 animals per cage. The first randomization was performed on day 11 post implantation. The average of tumor volume of animals in each cage was determined. The average tumor volume in the cages was from 3.8 mm^3 to 19.7 mm^3. […] The first randomization was conducted with Latin square method based on the average tumor volume of all animals in each cage. […] Once the average tumor size reached 70 mm^3 for vehicle treated animals and 76 mm^3 for bemcentinib treated animals (tumor volume=L×W×W/2) the second randomization was performed prior to injection of chemotherapeutic agent (doxorubicin) on day 16. Randomization 2 was conducted with Latin square method based on average tumor volume of all animals in the bemcentinib group and in the vehicle group from randomization 1. […]
# Tumor growth was measured with a digital hand held caliper at least twice weekly (once tumor emerges), prior to the first dosing, and then on the day of euthanasia.
# When tumors reached an average of 7-170 mm^3, each animal received Doxorubicin (Dox) at a concentration of 0.5 mg/ml (groups C,D,F and H) in a total volume of 50 ul×TV/120 as indicated in Table 1. […] Total drug dose was calculated based on each animal's individual tumor size. […]
# [10] = tested on: 43 mouse cytokines; experiment: Plasma cytokines, ProcartaPlex Multiplex Immunoassay (Luminex) (Example 2); type: in vivo, Balb/c mice; details: 1 mg/kg doxorubicin i.t., 72 h post injection, 43 measured
# Method: The manufacturer user guide was followed. The samples were analyzed by (MAGPIX) and the results were obtained as concentration in pg/ml of mouse plasma. At least 3 samples per group, 4 for many, were analyzed.
# [11] = tested on: 4T1 cells; experiment: RNA sequencing of 4T1 cells in vitro (Example 4); type: cell-based, mouse; details: without supplemental Gas6
compound,measurement,setting,value
"COc1cccc2c1C(=O)c1c(O)c3c(c(O)c1C2=O)C[C@@](O)(C(=O)CO)C[C@@H]3O[C@H]1C[C@H](N)[C@H](O)[C@H](C)O1 [Doxorubicin, doxorubicin]",Expression of IFN type I related genes,[1],increase of expression
same,GO terms significantly upregulated compared to control (number),[2],1
same,Interferon and immune response (gene ontology) compared to bern only group,[2],upregulated
same,Interferon response (gene ontology) compared to control,[2],No Interferon response
same,Effect on the body weight of mice,[3],limited effect
same,Tumor growth,[4],no effect
same,ISG significantly upregulated compared to control (number),[5],No gene
same,ISG with significant mRNA fold change upregulation compared to control (number),[6],9
same,IC50,"[7]; Mus musculus, LL/2, read-out: IC50 without bem",178 nM
same,IC50,"[7]; in the presence of bemcentinib, read-out: IC50 with bem",70.3 nM
same,ISG significantly upregulated compared to control (number),[8],limited IFN response
same,Effect on mouse survival,[9],do not show any effect
"Nc1nc(Nc2ccc3c(c2)CC[C@@H](N2CCCC2)CC3)nn1-c1cc2c(nn1)-c1ccccc1CCC2 [Bemcentinib, bemcentinib]",Expression of IFN type I related genes,[1],only a few upregulated genes
same,GO terms significantly downregulated compared to control (number),[2],20
same,GO terms significantly upregulated compared to control (number),[2],2
same,Interferon response (gene ontology) compared to control,[2],downregulated
same,Cytokines with a significant decrease of concentration (number),[10],4
same,ISG significantly upregulated compared to control (number),[5],4
same,IFN related gene expression by RNA sequencing,[11],limited IFN type I response
same,Median survival (tumor volume 1000 mm^3),[9]; days until tumor 1000 mm^3 or sacrifice due to severe symptoms,34.5 days
same,Effect on mouse survival,[9],do not show any effect
